Experimental data from US9486471B2, “Combination therapy for the treatment of cancer” (McMaster University, priority 2012, dated 2016).

Experiments:
Type in all cases: cell-based, human
[1] = test system: normal HSCs and progenitors; assay: Methocellulose colony formation of normal HSCs (Example 2); settings: 10 μM
Method: Normal HSCs and progenitors were sourced from either mobilized peripheral blood or umbilical cord blood of health patients. Primary AML cells were taken from patients diagnosed with AML. Both normal HSCs and primary AML cells were cultured under standard in vitro methocellulose assay conditions (see http://www.stemcell.com/en/Products/All-Products/MethoCult-H4434-Classic.aspx as well as Clinton Campbell et al. The human stem cell hierarchy is defined by a functional dependence on Mcl-1 for self-renewal capacity. Blood 116 (9) 1433-1442 (Jun. 4, 2010), hereby incorporated by reference) for at least 14 days before the number of colonies were recorded.

[2] = test system: patient AML cells (CD11b); assay: Frequency of CD11b granulocytic cells in cultured patient AML cells; settings: 10 μM, up to 96 hours
[3] = test system: CD14+ cells in primary AML; assay: Flow cytometry frequency of CD14+ cells in primary AML; settings: 10 μM, 72 h; control 100%
[4] = test system: v1H9-Oct4-GFP neoplastic hPSC; assay: Chemical screening of neoplastic hPSC reporter line (GFP / Hoechst, loss of pluripotency)
Method: In Vitro Culture Platform for Normal and Neoplastic hPSCs. Chemical screens involved v1H9-Oct4-GFP cells seeded at 5,000 cells per well in mouse embryonic fibroblast conditioned media (MEFCM) supplemented with 8 ng/ml bFGF. 24 hours later the media was exchanged for MEFCM with compounds at 10 μM and 0.1% DMSO, 0.1% DMSO (−BMP4) or 100 ng/ml of BMP4 and 0.1% DMSO (+BMP4) for 48 hours before being exchanged with fresh media with compound for a further 24 h (total compound treatment time 72 h) prior to being fixed and prepared for automated imaging and plate reader analysis. Confluent H9 & fibroblast-derived iPSC were seeded at 10,000 cells per well in MEFCM supplemented with 8 ng/ml bFGF. 24 hours later the cells were treated with compounds at 10 μM and 0.1% DMSO, 0.1% DMSO (−BMP4) or 100 ng/ml of BMP4 and 0.1% DMSO (+BMP4). Fresh MEFCM supplemented with compounds was exchanged daily for 5 days. On day 5, hPSC's were fixed and prepared for automated imaging and plate reader analysis. See supplementary experimental procedures for further details.
Imaging Neoplastic hPSC. Cells were fixed in 2% paraformaldehyde and stained with 10 μg/mL Hoechst 33342 (Invitrogen) with a Combi Multidrop Dispenser (Thermo). For experiments that involved Oct4 immunocytochemistry, a monoclonal antibody for Oct4 (BD) was used along with an Alexa-Fluor-647 secondary (Invitrogen). Immunocytochemical staining was performed by a Janus automated liquid handler (Perkin Elmer). Images were acquired at 10× N.A with an Arrayscan HCS VTI Reader (Cellomics) by means of epi-fluorescence illumination and standard filter sets.
Image Analysis. Image analysis was performed using custom scripts in Acapella software (Perkin Elmer). Nuclear objects were segmented from the Hoechst signal. For neoplastic cell lines, object intensity analysis was performed on GFP positive cells only. For normal cell lines, the fraction of Alexa-Fluor-647-positive cells was quantified. Images and well-level data were stored and analysed in a Columbus Database (Perkin Elmer) and further data analysis, compounds registration and hit identification in ActivityBase (IDBS).
These Collections have been previously scrutinized in numerous other mammalian cell lines (Diallo et al., 2010; Shoemaker, 2006).

CSc1ccc2c(c1)N(CCC1CCCCN1C)c1ccccc1S2 (racemic) [thioridazine, 10-{2-[(RS)-1-Methylpiperidin-2-yl]ethyl}-2-methylsulfanylphenothiazine]
cell pellets of CFU colonies ([1]; HSCs): pelleted cells are still visible | colony forming potential of normal HSCs ([1]; DMSO control about 100, at least 14 days): about 66 total colonies | frequency of granulocytic (CD11b) AML-blast cells [2]: marked increase | normalized frequency of CD14+ cells [3]: 20% | hit in extended screen (loss of pluripotency) ([4]; 2446 compound screen, reduced mean GFP intensity and cell count): hits | activity at 10 µM ([4]; Homo sapiens, 10 μM, 590 compound screen, read-out: Hoechst % residual activity (% RA)): > 30%
